Results: US20080009418A1, “Selective Inhibitors” (Alchemia LTD., priority 2004, published 2008)

Tests used:
Settings in all cases: compound at 10 μM
Mouse urotensin (mUR2) = target: T1, Mouse urotensin (mUR2) (Mus musculus, UniProt Q8VIH9); experiment: Radioligand binding, mouse urotensin mUR2 membranes, FlashPlate, [125I]-Urotensin II
T1 construct: purchased Perkin Elmer Biosignal
T1 sequence (Q8VIH9 1-385): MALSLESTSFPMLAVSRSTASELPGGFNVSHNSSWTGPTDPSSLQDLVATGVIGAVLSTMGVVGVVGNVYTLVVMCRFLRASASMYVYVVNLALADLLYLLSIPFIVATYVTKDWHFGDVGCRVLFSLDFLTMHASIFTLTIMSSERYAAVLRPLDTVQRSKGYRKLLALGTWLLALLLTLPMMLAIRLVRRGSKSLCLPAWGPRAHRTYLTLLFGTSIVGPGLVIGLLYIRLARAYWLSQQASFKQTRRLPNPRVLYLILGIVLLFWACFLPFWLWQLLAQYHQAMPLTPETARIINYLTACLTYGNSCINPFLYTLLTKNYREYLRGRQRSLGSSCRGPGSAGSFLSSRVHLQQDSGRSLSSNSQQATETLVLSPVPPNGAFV
How it was run: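 Cloned mouse urotensin (mUR2) receptor membranes from Perkin Elmer Biosignal were immobilized in FlashPlate microplates using a proprietary coating. Each well got 19.5 μl buffer, then 0.5 μl of DMSO, reference ligand, or compound. Adding 5 μl of [125I]-Urotensin II, diluted to 5× final concentration in binding buffer, started binding. Plates were sealed with TopSeal-A and incubated 1 hour at room temperature in the dark. Wells were counted for 30 seconds each on a TopCount after a 60-second delay, and percentage inhibition was calculated.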

[1] = target: T2, Human melanin-concentrating hormone (MCH1) (Homo sapiens, UniProt Q99705); experiment: Radioligand binding, human melanin-concentrating hormone MCH1 membranes, FlashPlate, [125I]-S36057
T2 construct: purchased Perkin Elmer Biosignal
How it was run: (§1)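 Cloned human receptor membranes were coated onto FlashPlate wells and incubated with radioligand and compound (added from a 0.5 mM DMSO daughter plate) for 1 hour at room temperature in the dark. Scintillation counting gave percent inhibition, with DMSO defining total and reference ligand defining non-specific binding.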

Human δ-opioid (DOP) = target: T3, Human δ-opioid (DOP) (Homo sapiens, UniProt P41143); experiment: Radioligand binding, human δ-opioid (DOP) membranes, FlashPlate, [3H]-Bremazocine
T3 construct: purchased Perkin Elmer Biosignal
How it was run: as §1

Human Melanocortin (MC3) = target: T4, Human Melanocortin (MC3) (Homo sapiens, UniProt P41968); experiment: Radioligand binding, human melanocortin MC3 membranes, FlashPlate, [125I]-NDP-αMSH
T4 construct: purchased Perkin Elmer Biosignal
How it was run: as §1

Human μ-opioid (MOP) = target: T5, Human μ-opioid (MOP) (Homo sapiens, UniProt P35372); experiment: Radioligand binding, human μ-opioid (MOP) membranes, FlashPlate, [3H]-Naloxone
T5 construct: purchased Perkin Elmer Biosignal
How it was run: as §1

Human opioid (ORL1) = target: T6, Human opioid (ORL1) (Homo sapiens, UniProt P41146); experiment: Radioligand binding, human opioid ORL1 membranes, FlashPlate, [125I]-Nociceptin
T6 construct: purchased Perkin Elmer Biosignal
How it was run: as §1

Human κ-Opioid (KOP) = target: T7, Human κ-Opioid (KOP) (Homo sapiens, UniProt P41145); experiment: Radioligand binding, human κ-opioid (KOP) membranes, filtration, [3H]-Diprenorphine
T7 construct: purchased Perkin Elmer Biosignal
How it was run: (§2)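 Percent inhibition of radioligand binding measured on recombinant human membranes: NK1 with [125I]-Substance P, KOP with [3H]-Diprenorphine. Incubation 1 h at room temperature, then harvest onto 0.3% PEI-soaked filters, cold Tris-HCl pH 7.4 washes and scintillation counting; non-specific binding from reference ligand wells.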

Human Melanocortin (MC4) = target: T8, Human Melanocortin (MC4) (Homo sapiens, UniProt P32245); experiment: Radioligand binding, human melanocortin MC4 membranes, FlashPlate, [125I]-NDP-αMSH
T8 construct: purchased Perkin Elmer Biosignal
How it was run: as §1

Human neurokinin (NK1) = target: T9, Human neurokinin (NK1) (Homo sapiens, UniProt P25103); experiment: Radioligand binding, human neurokinin NK1 membranes, filtration, [125I]-Substance P
T9 construct: purchased Perkin Elmer Biosignal
How it was run: as §2

[2] = target: T10, Human neuropeptide Y (NPY-Y1) (Homo sapiens, UniProt P25929); experiment: Radioligand binding, human neuropeptide Y NPY-Y1 membranes, FlashPlate, [125I]-PYY
T10 construct: purchased Perkin Elmer Biosignal
T10 sequence (P25929 1-384): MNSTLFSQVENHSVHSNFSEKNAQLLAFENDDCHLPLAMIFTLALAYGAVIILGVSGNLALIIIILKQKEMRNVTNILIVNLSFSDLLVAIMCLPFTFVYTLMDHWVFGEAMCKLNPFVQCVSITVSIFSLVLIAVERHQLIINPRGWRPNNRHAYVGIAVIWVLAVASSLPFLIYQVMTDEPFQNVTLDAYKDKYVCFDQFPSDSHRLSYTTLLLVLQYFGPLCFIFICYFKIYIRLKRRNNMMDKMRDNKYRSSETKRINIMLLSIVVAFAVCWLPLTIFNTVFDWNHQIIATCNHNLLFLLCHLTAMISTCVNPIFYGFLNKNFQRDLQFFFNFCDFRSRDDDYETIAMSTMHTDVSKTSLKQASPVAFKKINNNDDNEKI
How it was run: as §1

Human melanocortin (MC5) = target: T11, Human melanocortin (MC5) (Homo sapiens, UniProt P33032); experiment: Radioligand binding, human melanocortin MC5 membranes, FlashPlate, [125I]-NDP-αMSH
T11 construct: purchased Perkin Elmer Biosignal
How it was run: as §1

T9 sequence (P25103 whole entry): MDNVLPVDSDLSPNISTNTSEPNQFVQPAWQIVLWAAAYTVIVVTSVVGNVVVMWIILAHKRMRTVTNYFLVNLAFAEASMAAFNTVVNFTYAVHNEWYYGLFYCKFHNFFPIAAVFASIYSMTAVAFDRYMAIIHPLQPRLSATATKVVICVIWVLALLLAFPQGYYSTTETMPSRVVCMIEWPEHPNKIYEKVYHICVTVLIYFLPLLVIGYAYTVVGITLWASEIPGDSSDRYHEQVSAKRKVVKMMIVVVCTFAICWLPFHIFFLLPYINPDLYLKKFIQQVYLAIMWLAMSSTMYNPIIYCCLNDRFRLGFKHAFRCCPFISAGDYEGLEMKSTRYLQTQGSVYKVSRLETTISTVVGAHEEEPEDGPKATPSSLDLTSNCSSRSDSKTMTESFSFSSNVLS
T7 sequence (P41145 whole entry): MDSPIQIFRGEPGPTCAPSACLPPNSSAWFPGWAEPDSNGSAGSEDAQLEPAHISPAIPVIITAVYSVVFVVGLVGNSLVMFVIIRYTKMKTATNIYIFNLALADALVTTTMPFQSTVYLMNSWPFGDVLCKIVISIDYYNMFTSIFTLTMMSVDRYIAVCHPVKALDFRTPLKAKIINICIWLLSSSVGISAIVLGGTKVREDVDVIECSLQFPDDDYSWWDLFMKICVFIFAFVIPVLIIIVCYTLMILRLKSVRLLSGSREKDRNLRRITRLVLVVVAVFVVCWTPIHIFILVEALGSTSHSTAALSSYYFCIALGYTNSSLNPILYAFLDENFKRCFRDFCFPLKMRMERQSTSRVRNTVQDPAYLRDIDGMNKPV
T5 sequence (P35372 whole entry): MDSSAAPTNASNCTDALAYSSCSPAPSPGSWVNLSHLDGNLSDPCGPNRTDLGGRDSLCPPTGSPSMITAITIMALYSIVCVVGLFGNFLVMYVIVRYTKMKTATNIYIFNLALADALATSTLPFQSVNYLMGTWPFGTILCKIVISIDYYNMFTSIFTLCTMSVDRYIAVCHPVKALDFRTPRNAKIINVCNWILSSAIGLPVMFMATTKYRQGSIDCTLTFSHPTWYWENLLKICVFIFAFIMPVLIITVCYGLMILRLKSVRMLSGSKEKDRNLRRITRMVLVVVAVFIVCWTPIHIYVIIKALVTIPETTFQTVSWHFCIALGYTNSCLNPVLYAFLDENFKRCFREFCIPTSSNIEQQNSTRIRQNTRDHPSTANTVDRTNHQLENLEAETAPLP
T6 sequence (P41146 whole entry): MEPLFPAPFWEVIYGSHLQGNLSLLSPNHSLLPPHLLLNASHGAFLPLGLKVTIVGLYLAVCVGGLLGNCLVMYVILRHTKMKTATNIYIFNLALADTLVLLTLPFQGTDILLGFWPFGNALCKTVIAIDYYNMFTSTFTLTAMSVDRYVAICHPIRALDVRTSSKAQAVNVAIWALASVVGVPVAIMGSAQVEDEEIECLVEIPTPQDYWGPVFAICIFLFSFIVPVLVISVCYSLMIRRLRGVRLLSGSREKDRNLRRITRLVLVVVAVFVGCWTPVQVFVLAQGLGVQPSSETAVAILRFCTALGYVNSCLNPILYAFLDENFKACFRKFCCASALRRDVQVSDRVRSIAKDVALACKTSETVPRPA
T8 sequence (P32245 whole entry): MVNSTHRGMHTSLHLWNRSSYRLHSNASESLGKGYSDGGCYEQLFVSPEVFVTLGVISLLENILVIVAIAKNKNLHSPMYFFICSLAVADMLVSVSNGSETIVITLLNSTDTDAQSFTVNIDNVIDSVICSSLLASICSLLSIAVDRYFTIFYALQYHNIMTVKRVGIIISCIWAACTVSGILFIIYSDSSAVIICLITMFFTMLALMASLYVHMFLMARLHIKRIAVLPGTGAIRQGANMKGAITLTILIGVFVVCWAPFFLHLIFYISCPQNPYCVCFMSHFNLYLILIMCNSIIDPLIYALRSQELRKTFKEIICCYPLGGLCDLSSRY
T3 sequence (P41143 whole entry): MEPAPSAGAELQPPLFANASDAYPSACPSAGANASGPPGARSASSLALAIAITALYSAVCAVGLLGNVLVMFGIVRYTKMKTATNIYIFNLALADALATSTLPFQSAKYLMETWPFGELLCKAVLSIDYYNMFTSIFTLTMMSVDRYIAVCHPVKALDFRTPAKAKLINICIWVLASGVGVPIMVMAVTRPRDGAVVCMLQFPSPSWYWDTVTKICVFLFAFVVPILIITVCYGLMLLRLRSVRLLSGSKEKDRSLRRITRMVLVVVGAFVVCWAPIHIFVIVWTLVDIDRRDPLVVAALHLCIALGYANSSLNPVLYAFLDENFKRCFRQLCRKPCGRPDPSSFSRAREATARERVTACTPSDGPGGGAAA
T11 sequence (P33032 whole entry): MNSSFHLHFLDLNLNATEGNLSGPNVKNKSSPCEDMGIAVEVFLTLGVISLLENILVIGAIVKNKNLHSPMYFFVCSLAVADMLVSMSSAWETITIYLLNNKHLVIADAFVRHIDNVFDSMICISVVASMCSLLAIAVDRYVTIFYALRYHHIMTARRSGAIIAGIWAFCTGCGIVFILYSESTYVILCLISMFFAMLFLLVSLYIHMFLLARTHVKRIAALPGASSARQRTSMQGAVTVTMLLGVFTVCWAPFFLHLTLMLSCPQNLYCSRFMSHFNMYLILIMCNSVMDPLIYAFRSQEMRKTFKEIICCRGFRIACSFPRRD
T4 sequence (P41968 whole entry): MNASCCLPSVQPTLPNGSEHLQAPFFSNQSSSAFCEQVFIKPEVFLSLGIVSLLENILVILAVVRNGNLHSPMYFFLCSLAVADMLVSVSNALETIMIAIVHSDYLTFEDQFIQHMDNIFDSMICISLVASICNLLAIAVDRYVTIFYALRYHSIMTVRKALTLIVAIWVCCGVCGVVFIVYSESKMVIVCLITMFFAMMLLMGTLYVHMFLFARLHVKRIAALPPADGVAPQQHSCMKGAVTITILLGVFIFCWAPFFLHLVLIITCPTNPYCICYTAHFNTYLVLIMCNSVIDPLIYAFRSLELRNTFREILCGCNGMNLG
T2 sequence (Q99705 whole entry): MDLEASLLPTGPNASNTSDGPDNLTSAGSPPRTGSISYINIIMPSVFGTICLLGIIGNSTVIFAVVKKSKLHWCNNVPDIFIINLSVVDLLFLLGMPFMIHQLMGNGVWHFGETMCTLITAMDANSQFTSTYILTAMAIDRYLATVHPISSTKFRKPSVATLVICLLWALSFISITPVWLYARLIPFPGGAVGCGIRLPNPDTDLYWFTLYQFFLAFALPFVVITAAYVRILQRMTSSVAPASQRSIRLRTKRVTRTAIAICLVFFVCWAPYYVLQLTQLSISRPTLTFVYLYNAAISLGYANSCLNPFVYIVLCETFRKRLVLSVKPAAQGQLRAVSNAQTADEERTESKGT

CO[C@H]1[C@H](O)[C@@H](COCc2ccc3ccccc3c2)OC(OCCNC(=N)N)[C@@H]1NC(=O)c1ccccc1 (stereo partly drawn) [compound 124]
A11 radioligand binding, percentage inhibition (Mouse urotensin (mUR2); [125I]-Urotensin II): − (“−” indicates less than 50% inhibition at 10 μM)
A6 radioligand binding, percentage inhibition ([1]; [125I]-S36057): − (“−” indicates less than 50% inhibition at 10 μM)
A1 radioligand binding, percentage inhibition (Human δ-opioid (DOP); [3H]-Bremazocine): − (“−” indicates less than 50% inhibition at 10 μM)
A3 radioligand binding, percentage inhibition (Human Melanocortin (MC3); [125I]-NDP-αMSH): − (“−” indicates less than 50% inhibition at 10 μM)
A7 radioligand binding, percentage inhibition (Human μ-opioid (MOP); [3H]-Naloxone): − (“−” indicates less than 50% inhibition at 10 μM)
A10 radioligand binding, percentage inhibition (Human opioid (ORL1); [125I]-Nociceptin): − (“−” indicates less than 50% inhibition at 10 μM)
A2 radioligand binding, percentage inhibition (Human κ-Opioid (KOP); [3H]-Diprenorphine): − (“−” indicates less than 50% inhibition at 10 μM)
A4 radioligand binding, percentage inhibition (Human Melanocortin (MC4); [125I]-NDP-αMSH): − (“−” indicates less than 50% inhibition at 10 μM)
A8 radioligand binding, percentage inhibition (Human neurokinin (NK1); [125I]-Substance P): + (“+” indicates greater than 50% inhibition at 10 μM)
A9 radioligand binding, percentage inhibition ([2]; [125I]-PYY): − (“−” indicates less than 50% inhibition at 10 μM)
A5 radioligand binding, percentage inhibition (Human melanocortin (MC5); [125I]-NDP-αMSH): + (“+” indicates greater than 50% inhibition at 10 μM)

CO[C@H]1[C@H](O)[C@@H](COCc2ccc(-c3ccccc3)cc2)OC(OCc2ccc3ccccc3c2)[C@@H]1NC(=O)CCCNC(=N)N (stereo partly drawn) [compound 69]
A11 radioligand binding inhibition (Mouse urotensin (mUR2); mouse urotensin mUR2 membranes): − (“−” indicates less than 50% inhibition at 10 μM)
A6 radioligand binding inhibition ([1]; human MCH1 membranes): + (“+” indicates greater than 50% inhibition at 10 μM)
A1 radioligand binding inhibition (Human δ-opioid (DOP); human δ-opioid (DOP) membranes): − (“−” indicates less than 50% inhibition at 10 μM)
A3 radioligand binding inhibition (Human Melanocortin (MC3); human melanocortin MC3 membranes): + (“+” indicates greater than 50% inhibition at 10 μM)
A7 radioligand binding inhibition (Human μ-opioid (MOP); human μ-opioid (MOP) membranes): + (“+” indicates greater than 50% inhibition at 10 μM)
A10 radioligand binding inhibition (Human opioid (ORL1); human ORL1 membranes): + (“+” indicates greater than 50% inhibition at 10 μM)
A2 radioligand binding inhibition (Human κ-Opioid (KOP); human κ-opioid (KOP) membranes): − (“−” indicates less than 50% inhibition at 10 μM)
A4 radioligand binding inhibition (Human Melanocortin (MC4); human melanocortin MC4 membranes): + (“+” indicates greater than 50% inhibition at 10 μM)
A8 radioligand binding inhibition (Human neurokinin (NK1); human neurokinin NK1 membranes): + (“+” indicates greater than 50% inhibition at 10 μM)
A9 radioligand binding inhibition ([2]; human NPY-Y1 membranes): − (“−” indicates less than 50% inhibition at 10 μM)
A5 radioligand binding inhibition (Human melanocortin (MC5); human melanocortin MC5 membranes): + (“+” indicates greater than 50% inhibition at 10 μM)

CSC1OC(COCc2ccc3ccccc3c2)C(O)C(OCc2ccccc2)C1NC(=O)CCN (stereo not drawn) [compound 261]
A11: inhibition of radioligand binding (Mouse urotensin (mUR2); [125I]-Urotensin II, FlashPlate): − (“−” indicates less than 50% inhibition at 10 μM)
A6: inhibition of radioligand binding ([1]; [125I]-S36057, FlashPlate): − (“−” indicates less than 50% inhibition at 10 μM)
A1: inhibition of radioligand binding (Human δ-opioid (DOP); [3H]-Bremazocine, FlashPlate): − (“−” indicates less than 50% inhibition at 10 μM)
A3: inhibition of radioligand binding (Human Melanocortin (MC3); [125I]-NDP-αMSH, FlashPlate): − (“−” indicates less than 50% inhibition at 10 μM)
A7: inhibition of radioligand binding (Human μ-opioid (MOP); [3H]-Naloxone, FlashPlate): − (“−” indicates less than 50% inhibition at 10 μM)
A10: inhibition of radioligand binding (Human opioid (ORL1); [125I]-Nociceptin, FlashPlate): − (“−” indicates less than 50% inhibition at 10 μM)
A2: inhibition of radioligand binding (Human κ-Opioid (KOP); [3H]-Diprenorphine, filtration): − (“−” indicates less than 50% inhibition at 10 μM)
A4: inhibition of radioligand binding (Human Melanocortin (MC4); [125I]-NDP-αMSH, FlashPlate): − (“−” indicates less than 50% inhibition at 10 μM)
A8: inhibition of radioligand binding (Human neurokinin (NK1); [125I]-Substance P, filtration): − (“−” indicates less than 50% inhibition at 10 μM)
A9: inhibition of radioligand binding ([2]; [125I]-PYY, FlashPlate): − (“−” indicates less than 50% inhibition at 10 μM)
A5: inhibition of radioligand binding (Human melanocortin (MC5); [125I]-NDP-αMSH, FlashPlate): + (“+” indicates greater than 50% inhibition at 10 μM)
